These results are taken from paper PMC6582486, “Stapled EGFR peptide reduces inflammatory breast cancer and inhibits additional HER-driven models of cancer” (Journal of Translational Medicine, 2019).

Series [1] concerns MDA-MB-468 breast cancer cells. Type of series: cell-based, human. The settings on record: 24 h. The text has this:
Fig. 1 Hydrocarbon stapling leads to increased EJ1 activity in comparison to HER-directed monoclonal therapies. a EJ1 sequence with PTD4 domain (underlined) corresponding to EGFR juxtamembrane domain sequence 643–663. Stabilized alpha helix (SAH) variations 1–5 beneath, with asterisks (*) indicating sites of staple. Control peptide (CP) with altered residues indicated by double underline. Stapled control (5) asterisks (*) indicate sites of staple. b Cartoon representation of EJ1 structure, with staple variation 5 highlighted. Positively charged residues indicated in blue, negatively charged residues in red. c Cartoon representation of CP structure, with staple variation highlighted. d Cell viability assay performed in MDA-MB-468 cells after 24 h comparing unstapled EJ1 versus staple variations SAH1, SAH4, and SAH5, with increasing concentrations. e Visualization of MDA-MB-468 cells untreated, treated with 10 µM EJ1, and 10 µM SAH5-EJ1 after 60 min. Scale bars represent 50 µm. f–h Cell viability assay performed in MDA-MB-468, MCF10A, or CHO cells over 3 days comparing treatment with Sapitinib (blue lines), SAH5-EJ1 (red lines), and SAH5-CP (grey lines). […] Data shown in d, f, g–i represent mean ± percent difference of assays performed in triplicate 1000–3000 cells were plated in 96-well plates (Falcon; Corning, NY) and allowed to adhere for 24–48 h prior to therapeutic introduction. Compounds were added and incubated on cells for 3 days in serum-containing media, followed by 2 h treatment with MTT (Sigma M5655) with the resulting formazan solubilized in DMSO. Absorbance was read at 540 nm by plate reader (uQuant, Bio-Tek Instruments). P-values were calculated from a one-way ANOVA.

A further series has as its system MCF10A breast cells. Description: Cell viability assay (MTT), MCF10A. Type of series: cell-based, human. As to conditions: 72 h of treatment, maximum reduction. An excerpt: (§1) Fig. 1 Hydrocarbon stapling leads to increased EJ1 activity in comparison to HER-directed monoclonal therapies. a EJ1 sequence with PTD4 domain (underlined) corresponding to EGFR juxtamembrane domain sequence 643–663. Stabilized alpha helix (SAH) variations 1–5 beneath, with asterisks (*) indicating sites of staple. Control peptide (CP) with altered residues indicated by double underline. Stapled control (5) asterisks (*) indicate sites of staple. b Cartoon representation of EJ1 structure, with staple variation 5 highlighted. Positively charged residues indicated in blue, negatively charged residues in red. c Cartoon representation of CP structure, with staple variation highlighted. d Cell viability assay performed in MDA-MB-468 cells after 24 h comparing unstapled EJ1 versus staple variations SAH1, SAH4, and SAH5, with increasing concentrations. e Visualization of MDA-MB-468 cells untreated, treated with 10 µM EJ1, and 10 µM SAH5-EJ1 after 60 min. Scale bars represent 50 µm. f–h Cell viability assay performed in MDA-MB-468, MCF10A, or CHO cells over 3 days comparing treatment with Sapitinib (blue lines), SAH5-EJ1 (red lines), and SAH5-CP (grey lines). […] Absorbance was read at 540 nm by plate reader (uQuant, Bio-Tek Instruments). P-values were calculated from a one-way ANOVA.

For another series, the system named is CHO cells. Kind of series: Cell viability assay (MTT), CHO. As to conditions: up to 3 days. Type of series: cell-based, Chinese Hamster.
Source text: as §1

In series [2] the test system is SUM149 inflammatory breast cancer cells. The format is cell-based. As to conditions: SUM149, 10 µM. The method, then: 1000–3000 cells were plated in 96-well plates (Falcon; Corning, NY) and allowed to adhere for 24–48 h prior to therapeutic introduction. Compounds were added and incubated on cells for 3 days in serum-containing media, followed by 2 h treatment with MTT (Sigma M5655) with the resulting formazan solubilized in DMSO. Absorbance was read at 540 nm by plate reader (uQuant, Bio-Tek Instruments). P-values were calculated from a one-way ANOVA.
Fig. 4 SAH5-EJ1 effectively treats models of basal and inflammatory breast cancers while increasing survival. a Changes in tumor burden in breast cancer PDX mouse model TM01278 with various concentrations of intravenous SAH5-EJ1. Control represents water as a vehicle control. *p < 0.05 (Control vs 1 µg/g); **p < 0.01 (Control vs 1 µg/g and vs 10 µg/g). N = 6 for each condition. b Kaplan–Meier curve of breast PDX mouse model treated with control (blue) or either 1 or 10 µg/g SAH5-EJ1 (green and red, respectively) (red asterisks indicate time point at which mice could no longer receive injections due to site toxicity). Data shown represent mean. N = 6 for all groups. c Cell viability assay performed in SUM149 cells over 3 days comparing treatment with Sapitinib (blue) to SAH5-EJ1 (red) and SAH5-CP (grey). Solid lines represent 24 h; dashed lines represent 72 h. Data shown represent mean ± percent difference of assays performed in triplicate. d Kaplan–Meier curve of inflammatory breast cancer SUM149-injected mouse model treated with injected control (water) (blue) or either 0.5 or 5 µg/g SAH5-EJ1 (green and red, respectively). Data shown represent mean. N = 8 for all groups. e Changes in tumor burden in SUM149-generated tumors with various doses of SAH5-EJ1. Control represents water (blue). Arrow indicates transition from intravenous (IV) SAH5-EJ1 injections to intraperitoneal (IP) on day 66. **p < 0.01 (Control vs 0.5 µg/g and vs 5 µg/g). Data shown represent mean ± standard deviation. N = 8 for all groups. f Images of mouse tumors taken on Day 116. Arrowheads indicate tumor site. Representative images selected. […]

The conditions of series [3]: cited from earlier work. The text has this:
Despite variations in extracellular ligand binding abilities and intracellular tyrosine kinase activity, HER1-3 share homology in their juxtamembrane domain [15]. Within the juxtamembrane domain are sequences responsible for targeting HER proteins to the nucleus, binding to calcium/calmodulin, trafficking to the basolateral domain from the trans-Golgi network, and dimerization, an event required for HER activation and downstream signaling.

pIC50: −log10 of the molar value. Read-outs that look alike come from different tables or passages of the source. Where a SMILES comes first, the peptide text is derived from it. Bridges are numbered along the chain shown (N, C = ends). Where no end group is shown, it is not given here. [ ]: non-standard residue; d: D form. R8 = C=CCCCCCC[C@@](C)(N)C(=O)O; S5 = C=CCCC[C@](C)(N)C(=O)O

Consider `CC[C@H](C)[C@H](NC(=O)[C@H](Cc1c[nH]cn1)NC(=O)[C@H](CCCNC(=N)N)NC(=O)[C@H](CCCNC(=N)N)NC(=O)[C@H](CCCNC(=N)N)NC(=O)[C@H](CCSC)NC(=O)[C@H](Cc1ccccc1)NC(=O)[C@H](C)NC(=O)[C@H](CCCNC(=N)N)NC(=O)[C@H](C)NC(=O)[C@H](CCC(N)=O)NC(=O)[C@H](CCCNC(=N)N)NC(=O)[C@H](C)NC(=O)[C@H](C)NC(=O)[C@H](C)NC(=O)[C@H](CCCNC(=N)N)NC(=O)[C@H](C)NC(=O)[C@@H](N)Cc1ccc(O)cc1)C(=O)N[C@]1(C)CCCCCCC=CCCC[C@@](C)(C(=O)N[C@@H](CC(C)C)C(=O)N[C@@H](CC(C)C)C(=O)N[C@@H](CCC(N)=O)C(=O)N[C@@H](CCC(=O)O)C(=O)N[C@@H](CCCNC(=N)N)C(=O)N[C@@H](CCC(=O)O)C(N)=O)NC(=O)[C@H](CCCNC(=N)N)NC(=O)[C@H](CC(C)C)NC(=O)[C@H]([C@@H](C)O)NC(=O)[C@H](CCCNC(=N)N)NC(=O)[C@H](CCCCN)NC(=O)[C@H](CCCNC(=N)N)NC1=O` [SAH1-EJ1] (H-YARAAARQARAFMRRRHI[R8]RKRTLR[S5]LLQERE-NH2; staple 19-26), for which the pIC50 (commonly −log10 of the IC50, conventionally taken in molar units) in series [1] is 5.00.

In the case of `CNC(=O)CN1CCC(Oc2cc3c(Nc4cccc(Cl)c4F)ncnc3cc2OC)CC1` [Sapitinib, reference compound], the “reduction of cell viability” value in the series with MCF10A breast cells was at most 70%. Further, in the series with CHO cells, the “efficacy / response in words” value is given as “limited efficacy”. For the same compound, the cell viability (usually a read-out of living cells in per cent, often relative to untreated cells) in series [2] (24 h) was “no reduction in cell viability”; in series [2] (3 days), 35%.

In series [1], `CC[C@H](C)[C@@H]1NC(=O)[C@H](Cc2c[nH]cn2)NC(=O)[C@H](CCCNC(=N)N)NC(=O)[C@H](CCCNC(=N)N)NC(=O)[C@H](CCCNC(=N)N)NC(=O)[C@](C)(NC(=O)[C@H](Cc2ccccc2)NC(=O)[C@H](C)NC(=O)[C@H](CCCNC(=N)N)NC(=O)[C@H](C)NC(=O)[C@H](CCC(N)=O)NC(=O)[C@H](CCCNC(=N)N)NC(=O)[C@H](C)NC(=O)[C@H](C)NC(=O)[C@H](C)NC(=O)[C@H](CCCNC(=N)N)NC(=O)[C@H](C)NC(=O)[C@@H](N)Cc2ccc(O)cc2)CCCCCCC=CCCC[C@@](C)(C(=O)N[C@@H](CCCCN)C(=O)N[C@@H](CCCNC(=N)N)C(=O)N[C@H](C(=O)N[C@@H](CC(C)C)C(=O)N[C@@H](CCCNC(=N)N)C(=O)N[C@@H](CCCNC(=N)N)C(=O)N[C@@H](CC(C)C)C(=O)N[C@@H](CC(C)C)C(=O)N[C@@H](CCC(N)=O)C(=O)N[C@@H](CCC(=O)O)C(=O)N[C@@H](CCCNC(=N)N)C(=O)N[C@@H](CCC(=O)O)C(N)=O)[C@@H](C)O)NC(=O)[C@H](C(C)C)NC1=O` [SAH4-EJ1] (H-YARAAARQARAF[R8]RRRHIV[S5]KRTLRRLLQERE-NH2; staple 13-20) gave a pIC50 of 5.00.

YARAAARQARAFMRRRHIVRKRTLRRLLQERE [EJ1] gave a pIC50 in series [1] of 4.74. Further, the “time to degradation when introduced to plasma” value in series [3] is on record as “less than 5 min”.
